Measured values from patent US8580965B2, “Substituted sulfonamide compounds” (Gruenenthal GmbH, priority 2006, dated 2013).

Assays:
[1] = biological target: T1, B1R receptor of the rat (bradykinin 1 receptor) (Rattus norvegicus, UniProt P97583); test: FLIPR Ca2+ assay (Fluo-4) on CHO K1 cells stably transfected with the B1R gene of the rat; % activation and % inhibition at 10 μM; format: cell-based; conditions: CHO-K1, test substance 10 μM; CHO K1 rB1R cells; Ca2+ inflow after 100 nM Des-Arg9-bradykinin; read-out: B1R antagonism, rat [10 μM] % inhibition
T1 construct: host or cells: CHO K1 cells (rB1R cells)
T1 sequence (P97583 1-337): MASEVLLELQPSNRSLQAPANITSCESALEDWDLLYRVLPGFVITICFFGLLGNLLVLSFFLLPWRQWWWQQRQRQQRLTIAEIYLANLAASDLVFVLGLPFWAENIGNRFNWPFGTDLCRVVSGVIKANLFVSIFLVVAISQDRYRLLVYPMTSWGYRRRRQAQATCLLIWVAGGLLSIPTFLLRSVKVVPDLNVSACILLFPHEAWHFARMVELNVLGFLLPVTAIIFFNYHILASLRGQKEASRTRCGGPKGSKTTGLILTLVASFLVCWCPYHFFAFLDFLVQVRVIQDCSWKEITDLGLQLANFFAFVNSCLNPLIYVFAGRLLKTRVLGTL
Experimental: The agonistic or antagonistic action of substances can be quantified on the bradykinin receptor 1 (B1R) of the species human and rat with ectopically expressing cell lines (CHO K1 cells) and with the aid of a Ca^2+-sensitive dye (Fluo-4) using a fluorescent imaging plate reader (FLIPR). The indication in % activation is based on the Ca^2+ signal after addition of Lys-Des-Arg^9-bradykinin (0.5 nM) or Des-Arg^9-bradykinin (100 nM). Antagonists result in a suppression of the Ca^2+ influx following administration of the agonist. The % inhibition in comparison with the maximum achievable inhibition is indicated.
Functional Investigation on the Bradykinin 1 Receptor (B1R)
The agonistic or antagonistic action of substances can be determined on the bradykinin 1 receptor (B1R) of the human and rat species with the following assay. According to this assay, the Ca^2+ inflow through the channel is quantified with the aid of a Ca^2+-sensitive dyes (Fluo-4 type, Molecular Probes Europe BV, Leiden, The Netherlands) in a fluorescent imaging plate reader (FLIPR, Molecular Devices, Sunnyvale, USA).
Chinese Hamster Ovary cells (CHO K1 cells) which are stably transfected with the human B1R gene (hB1R cells, Euroscreen s.a., Gosselies, Belgium) or the B1R gene of the rat (rB1R cells, Axxam, Milan, Italy) are used. For functional investigations, these cells are plated-out on black 96-well plates with a clear base (BD Biosciences, Heidelberg, Germany) in a density of 20,000-25,000 cells/well. Overnight, the cells are incubated at 37° C. and 5% CO2 in culture medium (hB1R cells: Nutrient Mixture Ham's F12, Gibco Invitrogen GmbH, Karlsruhe, Germany; rB1R cells: D-MEM/F12, Gibco Invitrogen, Karlsruhe, Germany) with 10 vol. % FBS (foetal bovine serum, Gibco Invitrogen GmbH, Karlsruhe, Germany). On the following day, the cells are loaded with 2.13 μM Fluo-4 (Molecular Probes Europe BV, Leiden, The Netherlands) in HBSS buffer (Hank's buffered saline solution, Gibco Invitrogen GmbH, Karlsruhe, Germany) […] (Sigma-Aldrich, Taufkirchen, Germany) and 10 mM HEPES (Sigma-Aldrich, Taufkirchen, Germany) for 60 min at 37° C. The plates are subsequently washed 2× with HBSS buffer, and HBSS buffer which additionally contains 0.1% BSA (bovine serum albumin; Sigma-Aldrich, Taufkirchen, Germany), 5.6 mM glucose and 0.05% gelatine (Merck KGaA, Darmstadt, Germany) is added. After a further incubation of 20 minutes at room temperature, the plates are inserted into the FLIPR for Ca^2+ measurement. The Ca^2+-dependent fluorescence is measured here before and after addition of substances (λex=488 nm, λem=540 nm). The quantification is effected by measurement of the highest fluorescence intensity (FC, fluorescence counts) over time.
The FLIPR protocol comprises 2 additions of substance. Test substances (10 μM) are first pipetted on to the cells and the Ca^2+ inflow is compared with the control (hB1R: Lys-Des-Arg^9-bradykinin 0.5 nM; rB1R: Des-Arg^9-bradykinin 100 nM). The value in % activation based on the Ca^2+ signal after addition of Lys-Des-Arg^9-bradykinin (0.5 nM) or Des-Arg^9-bradykinin (100 nM) is obtained therefrom. After incubation for 10 minutes, 0.5 nM Lys-Des-Arg^9-bradykinin (hB1R) or 100 nM Des-Arg^9-bradykinin (rB1R) are applied and the inflow of Ca^2+ is likewise determined. Antagonists lead to a suppression of the Ca^2+ inflow. % inhibition compared with the maximum inhibition which can be achieved is calculated. The compounds show a good activity on the human and on the rat receptor. The following data were determined by way of example: […]

[2] = biological target: T2, human B1R receptor (bradykinin 1 receptor) (Homo sapiens, UniProt P46663); test: FLIPR Ca2+ assay (Fluo-4) on CHO K1 cells stably transfected with the human B1R gene; % activation and % inhibition at 10 μM; format: cell-based; conditions: CHO-K1, test substance 10 μM; CHO K1 hB1R cells; Ca2+ inflow after 0.5 nM Lys-Des-Arg9-bradykinin; read-out: B1R antagonism, human [10 μM] % inhibition
T2 construct: host or cells: CHO K1 cells (hB1R cells)
T2 sequence (P46663 1-353): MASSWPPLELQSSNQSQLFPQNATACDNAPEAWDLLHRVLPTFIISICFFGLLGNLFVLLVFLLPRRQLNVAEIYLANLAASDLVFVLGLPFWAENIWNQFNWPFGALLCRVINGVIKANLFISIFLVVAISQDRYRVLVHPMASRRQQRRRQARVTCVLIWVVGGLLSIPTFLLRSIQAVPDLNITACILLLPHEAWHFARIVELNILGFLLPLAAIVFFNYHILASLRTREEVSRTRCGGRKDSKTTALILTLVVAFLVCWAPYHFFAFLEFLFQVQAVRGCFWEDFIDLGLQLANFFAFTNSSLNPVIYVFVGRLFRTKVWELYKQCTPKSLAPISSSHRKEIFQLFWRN
Summary of the method: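 Fluo-4 Ca2+ flux on FLIPR in stable hB1R or rB1R CHO K1 lines, two additions. Agonism: 10 µM compound versus 0.5 nM Lys-Des-Arg9-BK (human) or 100 nM Des-Arg9-BK (rat); antagonism: same agonists applied 10 min later, suppression expressed against maximum achievable inhibition.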

CN(CCOCC(=O)N1CCC(O)(c2ccccn2)CC1)S(=O)(=O)c1ccc(OC(F)(F)F)cc1 [Example 20, N-{2-[2-(4′-hydroxy-3′,4′,5′,6′-tetrahydro-2′H-[2,4′]bipyridinyl-1′-yl)-2-oxo-ethoxy]-ethyl}-N-methyl-4-trifluoromethoxy-phenylsulfonamide]
inhibition at 10 µM [1]: 17.1% | inhibition at 10 µM [2]: 22.2%

COc1cc(C)c(S(=O)(=O)N2CCC(OCC(=O)N3CCC(O)(c4ccccn4)CC3)C2)c(C)c1 (centres unmarked) [Example 21, 1-(4′-hydroxy-3′,4′,5′,6′-tetrahydro-2′H-[2,4′]bipyridinyl-1′-yl)-2-[1-(4-methoxy-2,6-dimethyl-phenylsulfonyl)-pyrrolidin-3-yloxy]-ethanone]
inhibition at 10 µM [1]: 71.1% | inhibition at 10 µM [2]: 20.5%

COc1ccc(S(=O)(=O)N2Cc3ccccc3CC2COCC(=O)N2CCC(O)(Cc3ccccc3)CC2)cc1 (centres unmarked) [Example 23, 1-(4-benzyl-4-hydroxy-piperidin-1-yl)-2-[2-(4-methoxy-phenylsulfonyl)-1,2,3,4-tetrahydro-isoquinolin-3-ylmethoxy]-ethanone]
inhibition at 10 µM [1]: 56.9% | inhibition at 10 µM [2]: 15.7%

Cc1ccc(S(=O)(=O)N2CCC(OCC(=O)N3CCC(O)(Cc4ccccc4)CC3)C2)cc1 (centres unmarked) [Example 24, 1-(4-benzyl-4-hydroxy-piperidin-1-yl)-2-[1-(toluene-4-sulfonyl)-pyrrolidin-3-yloxy]-ethanone]
inhibition at 10 µM [1]: 6.88% | inhibition at 10 µM [2]: 12.1%

COc1ccc(S(=O)(=O)N2CCCC2COCC(=O)N2CCC(O)(c3ccncc3)CC2)cc1 (centres unmarked) [Example 26, 1-(4-hydroxy-3,4,5,6-tetrahydro-2H-[4,4′]bipyridinyl-1-yl)-2-[1-(4-methoxy-phenylsulfonyl)-pyrrolidin-2-ylmethoxy]-ethanone]
inhibition at 10 µM [1]: 5.09% | inhibition at 10 µM [2]: 9.64%

Cc1cc(C)c(S(=O)(=O)N2CCC(OCC(=O)N3CCC(O)(c4ccccn4)CC3)C2)c(C)c1 (centres unmarked) [Example 30, 1-(4′-hydroxy-3′,4′,5′,6′-tetrahydro-2′H-[2,4′]bipyridinyl-1′-yl)-2-[1-(2,4,6-trimethyl-phenylsulfonyl)-pyrrolidin-3-yloxy]-ethanone]
inhibition at 10 µM [1]: 17.4% | inhibition at 10 µM [2]: 6.86%

CN(c1ccccc1OCC(=O)N1CCC(O)(Cc2ccccc2)CC1)S(=O)(=O)c1ccc(Cl)c(Cl)c1 [Example 33, N-{2-[2-(4-benzyl-4-hydroxy-piperidin-1-yl)-2-oxo-ethoxy]-phenyl}-3,4-dichloro-N-methyl-phenylsulfonamide]
inhibition at 10 µM [1]: 19.4% | inhibition at 10 µM [2]: 6.18%

O=C(COC1CCN(S(=O)(=O)c2ccccc2)C1)N1CCC(O)(c2ccccn2)CC1 (centres unmarked) [Example 34, 2-(1-phenylsulfonyl-pyrrolidin-3-yloxy)-1-(4′-hydroxy-3′,4′,5′,6′-tetrahydro-2′H-[2,4′]bipyridinyl-1′-yl)-ethanone]
inhibition at 10 µM [1]: 40.3% | inhibition at 10 µM [2]: 5.93%

COc1ccc(S(=O)(=O)N2CCCC2COCC(=O)N2CCC(O)(c3ccccn3)CC2)cc1 (centres unmarked) [Example 40, 1-(4′-hydroxy-3′,4′,5′,6′-tetrahydro-2′H-[2,4′]bipyridinyl-1′-yl)-2-[1-(4-methoxy-phenylsulfonyl)-pyrrolidin-2-ylmethoxy]-ethanone]
inhibition at 10 µM [1]: 61.3% | inhibition at 10 µM [2]: 1.84%

COc1ccc(S(=O)(=O)N(C)CCOCC(=O)N2CCC(O)(c3ccccn3)CC2)cc1OC [Example 41, N-{2-[2-(4′-hydroxy-3′,4′,5′,6′-tetrahydro-2′H-[2,4′]bipyridinyl-1′-yl)-2-oxo-ethoxy]-ethyl}-3,4-dimethoxy-N-methyl-phenylsulfonamide]
inhibition at 10 µM [1]: -6.31% | inhibition at 10 µM [2]: 1.29%

COc1ccc(S(=O)(=O)N(C)CCOCC(=O)N2CCC(O)(c3ccccn3)CC2)cc1 [Example 42, N-{2-[2-(4′-hydroxy-3′,4′,5′,6′-tetrahydro-2′H-[2,4′]bipyridinyl-1′-yl)-2-oxo-ethoxy]-ethyl}-4-methoxy-N-methyl-phenylsulfonamide]
inhibition at 10 µM [1]: -38.1% | inhibition at 10 µM [2]: 0.67%

CN(C1CCCCC1OCC(=O)N1CCC(O)(Cc2ccccc2)CC1)S(=O)(=O)c1ccc(Cl)c(Cl)c1 (centres unmarked) [Example 43, N-{2-[2-(4-benzyl-4-hydroxy-piperidin-1-yl)-2-oxo-ethoxy]-cyclohexyl}-3,4-dichloro-N-methyl-phenylsulfonamide]
inhibition at 10 µM [1]: 33.9% | inhibition at 10 µM [2]: -1.29%

COc1ccc(S(=O)(=O)N2CCCCC2CCOCC(=O)N2CCC(O)(c3ccccn3)CC2)cc1 (centres unmarked) [Example 44, 1-(4′-hydroxy-3′,4′,5′,6′-tetrahydro-2′H-[2,4′]bipyridinyl-1′-yl)-2-{2-[1-(4-methoxy-phenylsulfonyl)-piperidin-2-yl]-ethoxy}-ethanone]
inhibition at 10 µM [1]: 76.6% | inhibition at 10 µM [2]: -2.3%

O=C(COCCN1CCN(S(=O)(=O)c2ccccc2)CC1)N1CCC(O)(c2ccncc2)CC1 [Example 49, 2-[2-(4-phenylsulfonyl-piperazin-1-yl)-ethoxy]-1-(4-hydroxy-3,4,5,6-tetrahydro-2H-[4,4′]bipyridinyl-1-yl)-ethanone]
inhibition at 10 µM [1]: 7.14% | inhibition at 10 µM [2]: -5.73%

COc1ccc(S(=O)(=O)N2Cc3ccccc3CC2COCC(=O)N2CCC(O)(c3ccccn3)CC2)cc1 (centres unmarked) [Example 50, 1-(4′-hydroxy-3′,4′,5′,6′-tetrahydro-2′H-[2,4′]bipyridinyl-1′-yl)-2-[2-(4-methoxy-phenylsulfonyl)-1,2,3,4-tetrahydro-isoquinolin-3-ylmethoxy]-ethanone]
inhibition at 10 µM [1]: 47.5% | inhibition at 10 µM [2]: -9.09%

O=C(COC1CCCN(S(=O)(=O)c2ccccc2)C1)N1CCC(O)(c2ccccn2)CC1 (centres unmarked) [Example 51, 2-(1-phenylsulfonyl-piperidin-3-yloxy)-1-(4′-hydroxy-3′,4′,5′,6′-tetrahydro-2′H-[2,4′]bipyridinyl-1′-yl)-ethanone]
inhibition at 10 µM [1]: 10.8% | inhibition at 10 µM [2]: -9.71%
